In US20250368649A1, “TETRAHYDROPYRIDOPYRIMIDINE PAN-KRAS INHIBITORS” (Mirati Therapeutics, Inc., priority 2022, published 2025) one finds IC50 and inhibition data, which are given here for five compounds.

One experiment deals with PSN1 cells. In words: Inhibition of KRas-mediated phosphorylation of ERK (Cisbio HTRF pERK), PSN1 cells. Type of experiment: cell-based. The conditions noted are these: Homo sapiens, PSN1, 3 h, 3 hour compound incubation, Cisbio pERK HTRF. The method, boiled down:
(§1)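 Seeding density of 6,000 cells per well was used, with cultures kept in RPMI/10% FBS from day 1.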
In general terms: Time-resolved FRET reads energy transfer from a long-lived donor to a nearby acceptor.

A further experiment relates to A549 cells. In words: Inhibition of KRas-mediated phosphorylation of ERK (Cisbio HTRF pERK), A549 cells. Type of experiment: cell-based. The conditions noted are these: Homo sapiens; for IC50: A549, 3 h, 3 hr compound incubation, Cisbio pERK HTRF; for inhibition at 0.1 µM: single point at 100 nM, 3 hrs compound incubation.
A further experiment deals with KRas G12D (Homo sapiens, UniProt P01116, G12D). The experiment is described as follows: biochemical. The conditions noted are these: Binding to KRas (IC50 nM) G12D, TR-FRET displacement, KRas G12D.
Chain of KRas G12D (P01116 1-169 isoform P01116-2 G12D): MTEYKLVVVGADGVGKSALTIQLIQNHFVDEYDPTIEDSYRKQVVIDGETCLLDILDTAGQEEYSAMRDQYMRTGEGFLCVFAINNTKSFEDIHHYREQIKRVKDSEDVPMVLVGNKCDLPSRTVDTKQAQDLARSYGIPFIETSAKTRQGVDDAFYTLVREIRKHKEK
The next experiment deals with KRas G12C (Homo sapiens, UniProt P01116, G12C). Type of experiment: binding. The conditions noted are these: single point, 10 nM compound, read-out: Binding to KRas (% inhibition at 10 nM) G12C.
Chain of KRas G12C (P01116 1-169 isoform P01116-2 G12C): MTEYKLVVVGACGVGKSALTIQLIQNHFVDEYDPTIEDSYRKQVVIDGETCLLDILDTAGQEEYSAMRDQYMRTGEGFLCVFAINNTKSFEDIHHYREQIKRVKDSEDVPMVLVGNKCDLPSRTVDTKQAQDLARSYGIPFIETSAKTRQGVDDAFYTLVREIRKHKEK
Another experiment concerns the target KRas G12S (Homo sapiens, UniProt P01116, G12S). Type of experiment: binding. The conditions noted are these: single point, 10 nM compound, read-out: Binding to KRas (% inhibition at 10 nM) G12S.
A further experiment addresses KRas G12R (Homo sapiens, UniProt P01116, G12R). In words: biochemical. The note with it: Binding to KRas (IC50 nM) G12R, TR-FRET displacement, KRas G12R.
In a further experiment the test system is H727 cells. The experiment is described as follows: Inhibition of KRas-mediated phosphorylation of ERK (Cisbio HTRF pERK), H727 cells. It is filed as cell-based. The note with it: Homo sapiens; for IC50: NCI-H727, 3 h, 3 hr compound incubation, Cisbio pERK HTRF; for inhibition at 0.1 µM: NCI-H727, single point at 100 nM, 3 hrs compound incubation.
The next experiment deals with KRas WT (Homo sapiens, UniProt P01116). In words: KRas binding assay (TR-FRET displacement), KRas WT. The note with it: single point, 10 nM compound.
Chain of KRas WT (P01116 1-169 isoform P01116-2): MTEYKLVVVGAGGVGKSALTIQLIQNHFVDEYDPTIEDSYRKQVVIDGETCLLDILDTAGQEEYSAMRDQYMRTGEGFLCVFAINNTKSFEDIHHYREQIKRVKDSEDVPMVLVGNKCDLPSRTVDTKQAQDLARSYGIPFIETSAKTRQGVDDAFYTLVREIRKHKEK
Another experiment relates to H460 cells. The experiment is described as follows: Inhibition of KRas-mediated phosphorylation of ERK (Cisbio HTRF pERK), H460 cells. It is filed as cell-based. The note with it: Homo sapiens, NCI-H460, 3 h, 3 hr compound incubation, Cisbio pERK HTRF.
The test system of the next experiment is ASPC1 cells. The experiment is described as follows: Inhibition of KRas-mediated phosphorylation of ERK (Cisbio HTRF pERK), ASPC1 cells. The conditions noted are these: Homo sapiens, AsPC-1 cells; for IC50: ASPC1, 3 h, 3 hr compound incubation, Cisbio pERK HTRF; for inhibition at 0.1 µM: ASPC1, single point at 100 nM, 3 hrs compound incubation. Type of experiment: cell-based.

The next experiment addresses KRas G12V (Homo sapiens, UniProt P01116, G12V). The experiment is described as follows: biochemical. The conditions noted are these: Binding to KRas (IC50 nM) G12V, TR-FRET displacement, KRas G12V.
The next experiment relates to HCT116 cells. In words: Inhibition of KRas-mediated phosphorylation of ERK (Cisbio HTRF pERK), HCT116 cells. It is filed as cell-based. The note with it: Homo sapiens, HCT-116, 3 h, 3 hr compound incubation, Cisbio pERK HTRF.
The subject of another experiment is MKN1 cells. The experiment is described as follows: Inhibition of KRas-mediated phosphorylation of ERK (Cisbio HTRF pERK), MKN1 cells. The conditions noted are these: Homo sapiens, MKN-1, 3 hour compound incubation, Cisbio pERK HTRF. Type of experiment: cell-based. Summed up: as §1
A further experiment deals with KRas Q61H (Homo sapiens, UniProt P01116, Q61H). In words: KRas binding assay (TR-FRET displacement), KRas Q61H. The conditions noted are these: single point, 10 nM compound.
Chain of KRas Q61H (P01116 1-169 isoform P01116-2 Q61H): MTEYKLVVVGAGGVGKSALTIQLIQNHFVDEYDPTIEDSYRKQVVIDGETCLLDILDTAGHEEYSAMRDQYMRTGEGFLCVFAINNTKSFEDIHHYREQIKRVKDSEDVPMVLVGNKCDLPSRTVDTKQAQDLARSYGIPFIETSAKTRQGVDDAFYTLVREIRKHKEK
The target of the next experiment is KRas G12A (Homo sapiens, UniProt P01116, G12A). It is filed as binding. The note with it: single point, 10 nM compound, read-out: Binding to KRas (% inhibition at 10 nM) G12A.
Chain of KRas G12A (P01116 1-169 isoform P01116-2 G12A): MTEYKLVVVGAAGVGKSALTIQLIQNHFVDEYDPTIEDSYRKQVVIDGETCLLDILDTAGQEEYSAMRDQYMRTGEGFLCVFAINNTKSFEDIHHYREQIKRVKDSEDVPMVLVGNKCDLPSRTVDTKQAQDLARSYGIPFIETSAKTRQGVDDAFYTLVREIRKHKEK
The subject of the next experiment is H358 cells. In words: Inhibition of KRas-mediated phosphorylation of ERK (Cisbio HTRF pERK), H358 cells. The note with it: Homo sapiens; for IC50: NCI-H358, 3 h, 3 hr compound incubation, Cisbio pERK HTRF; for inhibition at 0.1 µM: NCI-H358, single point at 100 nM, 3 hrs compound incubation. Type of experiment: cell-based.
A further experiment addresses KRas G13D (Homo sapiens, UniProt P01116, G13D). Type of experiment: binding. The conditions noted are these: single point, 10 nM compound, read-out: Binding to KRas (% inhibition at 10 nM) G13D.

SMILES strings stand for the structures.

Chain of KRas G13D (P01116 1-169 isoform P01116-2 G13D): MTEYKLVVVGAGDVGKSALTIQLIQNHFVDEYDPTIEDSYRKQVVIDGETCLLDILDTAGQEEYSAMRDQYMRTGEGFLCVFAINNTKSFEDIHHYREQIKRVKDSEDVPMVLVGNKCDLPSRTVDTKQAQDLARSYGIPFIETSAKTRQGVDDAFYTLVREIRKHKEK
Chain of KRas G12S (P01116 1-169 isoform P01116-2 G12S): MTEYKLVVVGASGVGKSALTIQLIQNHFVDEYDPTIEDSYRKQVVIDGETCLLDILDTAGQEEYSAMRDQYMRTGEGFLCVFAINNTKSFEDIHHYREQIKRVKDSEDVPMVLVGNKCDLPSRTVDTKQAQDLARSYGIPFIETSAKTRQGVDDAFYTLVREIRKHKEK
Chain of KRas G12V (P01116 1-169 isoform P01116-2 G12V): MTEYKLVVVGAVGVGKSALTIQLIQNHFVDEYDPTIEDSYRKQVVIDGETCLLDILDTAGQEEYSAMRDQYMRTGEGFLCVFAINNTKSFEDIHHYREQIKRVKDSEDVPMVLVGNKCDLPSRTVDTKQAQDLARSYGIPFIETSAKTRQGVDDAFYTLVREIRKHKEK
Chain of KRas G12R (P01116 1-169 isoform P01116-2 G12R): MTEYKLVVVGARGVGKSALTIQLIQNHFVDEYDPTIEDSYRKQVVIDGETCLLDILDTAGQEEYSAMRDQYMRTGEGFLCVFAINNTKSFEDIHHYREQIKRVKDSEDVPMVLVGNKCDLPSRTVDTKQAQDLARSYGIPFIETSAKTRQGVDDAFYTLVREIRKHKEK

Usually IC50 stands for the concentration that inhibits the measured activity by half. As usually defined, the inhibition is how much of the control response was suppressed. Consider `CCc1c(F)ccc2cc(O)cc(N3CCc4c(nc(OC[C@@]56CCCN5C[C@H](F)C6)nc4N4CCCn5nc(C(=O)NC6CC6)cc5C4)C3)c12` [Example 384, N-cyclopropyl-5-(7-(8-ethyl-7-fluoro-3-hydroxynaphthalen-1-yl)-2-(((2R,7aS)-2-fluorohexahydro-1H-pyrrolizin-7a-yl)methoxy)-5,6,7,8-tetrahydropyrido[3,4-d]pyrimidin-4-yl)-5,6,7,8-tetrahydro-4H-pyrazolo[1,5-a][1,4]diazepine-2-carboxamide], for which the concentration for half-maximal inhibition (IC50) in the experiment on PSN1 cells was 3880 nM; in the experiment with A549 cells it was 17 nM; at KRas G12D it was less than 2 nM; at KRas G12R it was less than 2 nM; with H727 cells it was 6 nM; in the experiment on H460 cells, 25 nM. For the same compound, the IC50 was 2 nM in the experiment on ASPC1 cells; less than 2 nM on KRas G12V; 91 nM in the experiment with HCT116 cells; 9 nM in the experiment with MKN1 cells; 5 nM in the experiment with H358 cells. For the same compound, the inhibition at 0.1 µM in the experiment with A549 cells amounted to 65%; with H727 cells it was 79%; in the experiment on ASPC1 cells it was 98%; in the experiment on H358 cells, 100%. Besides, the inhibition at 0.01 µM at KRas G12C was found to be 99%; at KRas G12S it was 98%; at KRas WT, 94%; at KRas Q61H, 95%; at KRas G12A, 91%; at KRas G13D it was 93%.

With `CCc1c(F)ccc2cc(O)cc(N3CCc4c(nc(OC[C@@]56CCCN5C[C@H](F)C6)nc4N4CCCn5nc(C(=O)N(C)C6CCC6)cc5C4)C3)c12` [Example 385, N-cyclobutyl-5-(7-(8-ethyl-7-fluoro-3-hydroxynaphthalen-1-yl)-2-(((2R,7aS)-2-fluorohexahydro-1H-pyrrolizin-7a-yl)methoxy)-5,6,7,8-tetrahydropyrido[3,4-d]pyrimidin-4-yl)-N-methyl-56,7,8-tetrahydro-4H-pyrazolo[1,5-a][1,4]diazepine-2-carboxamide], the half-maximal inhibitory concentration (IC50) with PSN1 cells is 3980 nM; in the experiment on A549 cells, 15 nM; on KRas G12D it was less than 2 nM; at KRas G12R, less than 2 nM; in the experiment on H727 cells, 5 nM; in the experiment on H460 cells it was 22 nM. Moreover, the IC50 in the experiment with ASPC1 cells was 3 nM; at KRas G12V, less than 2 nM; in the experiment on HCT116 cells it was 85 nM; in the experiment on MKN1 cells it was 14.4 nM; in the experiment on H358 cells, 2 nM. The inhibition at 0.1 µM in the experiment on A549 cells stood at 74%; in the experiment on H358 cells it was 94%. The inhibition at 0.01 µM turned out to be 98% at KRas G12C; 98% at KRas G12S; 95% at KRas WT; 96% at KRas Q61H; 96% on KRas G12A; 94% at KRas G13D.

As to `CCc1c(F)ccc2cc(O)cc(N3CCc4c(nc(OC[C@@]56CCCN5C[C@H](F)C6)nc4N4CCCn5nc(C(=O)NC(C)C)c(Cl)c5C4)C3)c12` [Example 386, 3-chloro-5-(7-(8-ethyl-7-fluoro-3-hydroxynaphthalen-1-yl)-2-(((2R,7aS)-2-fluorotetrahydro-1H-pyrrolizin-7a(5H)-yl)methoxy)-5,6,7,8-tetrahydropyrido[3,4-d]pyrimidin-4-yl)-N-isopropyl-5,6,7,8-tetrahydro-4H-pyrazolo[1,5-a][1,4]diazepine-2-carboxamide], the IC50 with PSN1 cells is 2710 nM; in the experiment on A549 cells, 4 nM; on KRas G12D, less than 2 nM; at KRas G12R, less than 2 nM; in the experiment with H727 cells, 2 nM; with H460 cells it was 19 nM. In addition, the IC50 in the experiment on ASPC1 cells was 1 nM; on KRas G12V it was less than 2 nM; with HCT116 cells, 39 nM; in the experiment on MKN1 cells, 11.3 nM; with H358 cells, 1 nM. The inhibition at 0.1 µM is 88% with A549 cells and 91% in the experiment on H358 cells. The inhibition at 0.01 µM stood at 99% at KRas G12C; 98% at KRas G12S; 95% on KRas WT; 97% at KRas Q61H; 92% at KRas G12A; 96% at KRas G13D.

Consider `CCc1c(F)ccc2cc(O)cc(N3CCc4c(nc(OC[C@@]56CCCN5C[C@H](F)C6)nc4N4CCCn5nc(C(=O)N(C)C)c(Br)c5C4)C3)c12` [Example 387, 3-bromo-5-(7-(8-ethyl-7-fluoro-3-hydroxynaphthalen-1-yl)-2-(((2R,7aS)-2-fluorohexahydro-1H-pyrrolizin-7a-yl)methoxy)-5,6,7,8-tetrahydropyrido[3,4-d]pyrimidin-4-yl)-N,N-dimethyl-5,6,7,8-tetrahydro-4H-pyrazolo[1,5-a][1,4]diazepine-2-carboxamide], for which the IC50 was 1800 nM with PSN1 cells; 1 nM in the experiment with A549 cells; less than 2 nM at KRas G12D; less than 2 nM at KRas G12R; 2 nM in the experiment on H727 cells; 7 nM with H460 cells. Further, the IC50 in the experiment with ASPC1 cells is 1 nM; at KRas G12V, less than 2 nM; in the experiment with HCT116 cells, 14 nM; in the experiment with MKN1 cells it was 3 nM; with H358 cells it was 1 nM. Also, the inhibition at 0.1 µM stood at 89% in the experiment on A549 cells, 85% in the experiment on H727 cells, 99% in the experiment on ASPC1 cells and 100% with H358 cells. The inhibition at 0.01 µM on KRas G12C came out at 100%; at KRas G12S, 100%; on KRas WT, 99%; on KRas Q61H it was 99%; on KRas G12A, 99%; at KRas G13D, 99%.

For `CCc1c(F)ccc2cc(O)cc(N3CCc4c(nc(OC[C@@]56CCCN5C[C@H](F)C6)nc4N4CCCn5nc(C(=O)NC)c(Cl)c5C4)C3)c12` [Example 388, 3-chloro-5-(7-(8-ethyl-7-fluoro-3-hydroxynaphthalen-1-yl)-2-(((2R,7aS)-2-fluorohexahydro-1H-pyrrolizin-7a-yl)methoxy)-5,6,7,8-tetrahydropyrido[3,4-d]pyrimidin-4-yl)-N-methyl-5,6,7,8-tetrahydro-4H-pyrazolo[1,5-a][1,4]diazepine-2-carboxamide], the IC50 was 2350 nM with PSN1 cells; 9 nM in the experiment on A549 cells; less than 2 nM at KRas G12D; less than 2 nM at KRas G12R; 2 nM in the experiment with H727 cells; 20 nM with H460 cells. For the same compound, the IC50 with ASPC1 cells was 1 nM; at KRas G12V, less than 2 nM; with HCT116 cells it was 42 nM; in the experiment with MKN1 cells it was 8.1 nM; in the experiment on H358 cells, 1 nM. Besides, the results for the inhibition at 0.1 µM with A549 cells and in the experiment with H358 cells were 79% and 97%, respectively. Besides, the inhibition at 0.01 µM is 100% on KRas G12C; 99% on KRas G12S; 98% at KRas WT; 99% on KRas Q61H; 94% on KRas G12A; 98% on KRas G13D.
